Entries after “also recorded” stand apart in the source; their conditions may differ. Ends that are not written are not given here.
Legend:
[1] = system: hAPP Tg mice (APP751 London and Swedish mutations); assay: Morris Water Maze in hAPP-transgenic mice; format: in vivo, mouse
Procedure: In order to determine the activity of the exemplary all-D retro-inverso IB(s) peptide XG-102 (SEQ ID NO: 233) in Alzheimer's disease, XG-102 (SEQ ID NO: 233) was evaluated in the hAPP-transgenic mice model overexpressing APP751 with London and Swedish mutations using the behavioral Morris Water Maze test as well as immunohistological tests measuring plaque load and ELISA tests measuring β-amyloid1-40 and β-amyloid1-42 levels in the brain of mice.
(§1) a) METHODS • i) Introduction • The study was designed to evaluate the efficacy of the test substance (XG-102, SEQ ID NO: 233) on behavioral, biochemical and histological markers using 5 months (±2 weeks) old female hAPP Tg mice. Therefore, mice were treated every two or three weeks up to 4 months and in the end of the treatment period behavior was evaluated in the Morris Water Maze. At sacrifice brain, CSF and blood were collected. Aβ40 and Aβ42 levels were determined in four different brain homogenate fractions as well as in CSF of Tg mice. Plaque load was quantified in the cortex and the hippocampus of 8 Tg animals per treatment group.
ii) Animals • Female Tg mice with a C57BU6xDBA background and an age of 5 months (±2 week) were randomly assigned to treatment groups 1 to 3 (n=12). […]

[2] = system: noise trauma (120 dB at 6 kHz); assay: Treatment of noise trauma, auditory brainstem response; format: in vivo, guinea pigs; conditions: 100 μM in hyaluronic acid gel on round window membrane; before or after noise trauma
Procedure: 19. […] Untreated ears served as control. Hearing threshold shifts are evaluated by auditory brainstem response measurements 20 minutes after noise trauma (temporary threshold shift, TTS) and 15 days following the trauma (permanent threshold shift, PTS).

Aβ1-40 and Aβ1-42 levels = assay: Aβ1-40 and Aβ1-42 ELISA in brain homogenate fractions and CSF of hAPP Tg mice; format: in vivo, mouse
Procedure: as §1
iv) Treatment • […] female hAPP transgenic mice were treated with either 0.1 mg/kg b.w./every two weeks or 10 mg/kg b.w./every three weeks of the test substance XG-102 (SEQ ID NO: 233) in two different dosages (n=12/group) or treated with the vehicle (n=12) s.c. once every three weeks over four months.
vi) Tissue Sampling • At the end of the treatment period, and following all behavioral testing, all remaining mice (n=28) were sacrificed. Therefore, all mice were sedated by standard inhalation anesthesia (Isofluran, Baxter) as described in SOP MET030. Cerebrospinal fluid (CSF) was obtained by blunt dissection and exposure of the foramen magnum. Upon exposure, a Pasteur pipette was inserted to the approximate depth of 0.3-1 mm into the foramen magnum. CSF was collected by suctioning and capillary action until flow fully ceases. Two aliquots of each sample were immediately frozen and kept at −80° C. until ready for further analysis with ELISA technique. After CSF sampling, each mouse was placed in dorsal recumbence, thorax was opened and a 26-gauge needle attached to a 1 cc syringe was inserted into the right cardiac ventricular chamber. Light suction was applied to the needle and blood was collected into EDTA and consequently used to obtain plasma. […]
vii) Determination of Aβ1-40 and Aβ1-42 • In four different brain homogenate fractions of each Tg mouse as well as in CSF samples the Aβ1-40 and Aβ1-42 levels were evaluated with ELISA technique. […]

dqsrpvqpflnIttprkprpprrrqrrkkrg (DQSRPVQPFLNLTTPRKPRPPRRRQRRKKRG; not fully specified (some residues); printed as dqsrpvqpflnIttprkprpprrrqrrkkrg) [XG-102]
learning performance between day 1 and day 4 ([1]; 0.1 mg/kg): a tendency to have worse learning performance between day 1 and day 4; also recorded: a slightly poorer learning performance between the first and the last training day | spatial learning in the MWM ([1]; 0.1 mg/kg every two weeks or 10 mg/kg every three weeks s.c., four months): remained widely uninfluenced | permanent hearing loss (permanent threshold shift) [2]: protected against permanent hearing loss even if applied after exposure to excessive noise | Aβ1-42 levels in Triton X-100 fraction (Aβ1-40 and Aβ1-42 levels; 0.1 mg/kg): a significant reduction compared to the vehicle group; also recorded: a decrease in the Triton X-100 fraction | CSF Aβ1-40 and Aβ1-42 levels (Aβ1-40 and Aβ1-42 levels; 0.1 and 10 mg/kg): significantly decreased in CSF compared to vehicle group | brain homogenate Aβ1-40 levels (Aβ1-40 and Aβ1-42 levels; four brain homogenate fractions): did not affect brain homogenate Aβ1-40 levels

Source: US10023615B2, “Efficient transport into white blood cells” (priority 2008, dated 2018)
